From ChEMBL document CHEMBL5030570, “Factor XI Activation Inhibitors for Treating Thrombosis, Embolisms, Hypercoagulability, and Fibrotic Changes” (ACS Med Chem Lett, 2022)

Target: Coagulation factor XI (Homo sapiens, UniProt P03951)
Assay: Inhibition of human coagulation factor 11 assessed as inhibition of factor 12a mediated activation using z-GPR-AFC measured after 60 mins by fluorescence assay

Sequence of Coagulation factor XI (P03951 19-387 limits assumed): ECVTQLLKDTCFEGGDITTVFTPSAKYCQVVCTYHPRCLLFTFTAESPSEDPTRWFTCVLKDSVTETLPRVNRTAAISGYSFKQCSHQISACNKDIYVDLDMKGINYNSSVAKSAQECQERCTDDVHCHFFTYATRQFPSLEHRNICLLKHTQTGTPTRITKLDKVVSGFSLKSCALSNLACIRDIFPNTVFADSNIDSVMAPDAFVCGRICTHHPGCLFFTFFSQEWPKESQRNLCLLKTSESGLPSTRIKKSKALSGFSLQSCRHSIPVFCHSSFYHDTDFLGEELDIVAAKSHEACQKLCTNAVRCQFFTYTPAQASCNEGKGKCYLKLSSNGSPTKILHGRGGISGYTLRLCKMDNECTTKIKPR
Sequence of Coagulation factor XI (P03951 388-625 limits assumed): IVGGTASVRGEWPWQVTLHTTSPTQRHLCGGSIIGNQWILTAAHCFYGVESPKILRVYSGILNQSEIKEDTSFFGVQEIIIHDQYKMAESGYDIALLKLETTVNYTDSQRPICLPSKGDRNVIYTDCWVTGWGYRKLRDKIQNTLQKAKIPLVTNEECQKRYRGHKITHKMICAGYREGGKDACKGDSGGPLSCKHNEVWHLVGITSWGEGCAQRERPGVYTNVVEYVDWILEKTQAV

Structure (SMILES): Cc1cnn(C2CCN(C(=O)c3cc(C(=O)N4CCCCC4)c4cc(OCc5ncc(C(F)(F)F)cc5Cl)ncc4c3)CC2)c1
- EC50: 3.8 nM
